Key:
LZK = target: T1, LZK (Homo sapiens, UniProt O43283); assay: LZK biochemical assay (TR-FRET, MKK7 phosphorylation); conditions: LZK catalytic domain, MKK7 substrate, 15 μM ATP
T1 construct: 10 nM LZK, catalytic domain, Carna Biosiences in assay buffer; purchased Carna Biosciences ('Carna Biosiences' [sic])
T1 sequence (O43283 168-409 limits assumed): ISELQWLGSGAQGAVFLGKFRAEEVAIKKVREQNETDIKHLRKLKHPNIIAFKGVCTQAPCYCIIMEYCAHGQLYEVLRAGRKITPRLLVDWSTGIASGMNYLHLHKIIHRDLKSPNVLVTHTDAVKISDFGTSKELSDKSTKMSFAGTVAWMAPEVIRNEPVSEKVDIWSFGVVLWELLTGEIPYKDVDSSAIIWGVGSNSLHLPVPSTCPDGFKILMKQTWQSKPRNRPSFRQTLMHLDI

DLK = target: T2, DLK (Homo sapiens, UniProt Q12852); assay: DLK biochemical assay (TR-FRET, MKK7 phosphorylation); conditions: DLK catalytic domain, MKK7 substrate, 60 μM ATP
T2 construct: 10 nM DLK, catalytic domain, Carna Biosiences; purchased Carna Biosciences ('Carna Biosiences' [sic])
T2 sequence (Q12852 125-366 limits assumed): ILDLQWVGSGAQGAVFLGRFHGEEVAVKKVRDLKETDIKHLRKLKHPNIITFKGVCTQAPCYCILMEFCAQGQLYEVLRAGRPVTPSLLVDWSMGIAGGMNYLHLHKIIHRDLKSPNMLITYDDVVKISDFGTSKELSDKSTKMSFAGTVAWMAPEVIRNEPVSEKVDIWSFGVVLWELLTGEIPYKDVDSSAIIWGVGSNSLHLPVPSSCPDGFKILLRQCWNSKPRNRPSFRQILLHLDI
How it was run: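 Human DLK activity measured as phosphorylation of His-tagged MKK7 at T275/S277, detected by TR-FRET between Eu-anti-phospho-MKK7 donor (excitation 340 nm) and XL665-anti-His acceptor (665 nm). Signal taken as the XL665/Eu ratio. Detection buffer: 25 mM Tris/HCl pH 7.5, 100 mM EDTA, 100 mM NaCl, 200 mM KF, 0.01% Tween 20.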

SMILES	IC50 (LZK) [nM]	IC50 (DLK) [nM]
CCC(c1ccc(C(F)(F)F)nc1)n1cc(-c2cc(C(=O)N[C@@H](C)CO)c3nc(N)nn3c2)cn1 (mixture of isomers) [Example I-151, 2-Amino-N-[(2S)-1-hydroxypropan-2-yl]-6-(1-{1-[6-(trifluoromethyl)pyridin-3-yl]propyl}-1H-pyrazol-4-yl)[1,2,4]triazolo[1,5-a]pyridine-8-carboxamide]	9.8	6.9
C[C@@H](CO)NC(=O)c1cc(-c2cnn(C(c3ccc(C(F)(F)F)nc3)C3CCOCC3)c2)cn2nc(N)nc12 (mixture of isomers) [Example I-154, 2-Amino-N-[(25)-1-hydroxypropan-2-yl]-6-(1-{tetrahydro-2H-pyran-4-yl[6-(trifluoromethyl)pyridin-3-yl]methyl}-1H-pyrazol-4-yl)[1,2,4]triazolo[1,5-a]pyridine-8-carboxamide]	4.6	1.1
CCC(c1ccc(OC(F)(F)F)nc1)n1cc(-c2cc(C(=O)N[C@@H](C)CO)c3nc(N)nn3c2)cn1 (mixture of isomers) [Example I-157, 2-Amino-N-[(2S)-1-hydroxypropan-2-yl]-6-(1-{1-[6-(trifluoromethoxy)pyridin-3-yl]propyl}-1H-pyrazol-4-yl)[1,2,4]triazolo[1,5-a]pyridine-8-carboxamide]	13	5.7
CC(C)C(c1ccc(F)cc1)n1cc(-c2cc(C(=O)N[C@@H](C)CO)c3nc(N)nn3c2)cn1 (mixture of isomers) [Example I-160, 2-Amino-6-{1-[1-(4-fluorophenyl)-2-methylpropyl]-1H-pyrazol-4-yl}-N-[(2S)-1-hydroxypropan-2-yl][1,2,4]triazolo[1,5-a]pyridine-8-carboxamide]	130	4.3
Nc1nc2c(C(=O)NC3CNC(=O)C3)cc(-c3cnn(Cc4ccc(F)cc4)c3)cn2n1 (racemic) [Example I-136, 2-Amino-6-[1-(4-fluorobenzyl)-1H-pyrazol-4-yl]-N-(5-oxopyrrolidin-3-yl)[1,2,4]triazolo[1,5-a]pyridine-8-carboxamide]	210	23
CC(CF)NC(=O)c1cc(-c2cnn(CC3CC3)c2)cn2nc(N)nc12 (racemic) [Example I-137, 2-Amino-6-[1-(cyclopropylmethyl)-1H-pyrazol-4-yl]-N-[1-fluoropropan-2-yl][1,2,4]triazolo[1,5-a]pyridine-8-carboxamide]	150	140

Other lines, results leading:

IC50 (LZK) [nM]	IC50 (DLK) [nM]	SMILES
18	2.6	CCC(c1ccc(C(F)(F)F)nc1)n1cc(-c2cc(C(=O)N[C@H]3CCOC3)n3nc(N)nc3c2)cn1 (mixture of isomers) [Example I-177, 2-Amino-N-[(3S)-tetrahydrofuran-3-yl]-7-(1-{1-[6-(trifluoromethyl)pyridin-3-yl]propyl}-1H-pyrazol-4-yl)[1,2,4]triazolo[1,5-a]pyridine-5-carboxamide]
6.1	1.6	CC(C)C(c1ccc(C(F)(F)F)nc1)n1cc(-c2cc(C(=O)N[C@H]3CCOC3)n3nc(N)nc3c2)cn1 (mixture of isomers) [Example I-180, 2-Amino-7-(1-{2-methyl-1-[6-(trifluoromethyl)pyridin-3-yl]propyl}-1H-pyrazol-4-yl)-N-[(3S)-tetrahydrofuran-3-yl][1,2,4]triazolo[1,5-a]pyridine-5-carboxamide]
6	1.7	Nc1nc2cc(-c3cnn(C(c4ccc(C(F)(F)F)nc4)C4CCOCC4)c3)cc(C(=O)N[C@H]3CCOC3)n2n1 (mixture of isomers) [Example I-183, 2-Amino-N-[(3S)-tetrahydrofuran-3-yl]-7-(1-{tetrahydro-2H-pyran-4-yl[6-(trifluoromethyl)pyridin-3-yl]methyl}-1H-pyrazol-4-yl)[1,2,4]triazolo[1,5-a]pyridine-5-carboxamide]
16	6.2	CCC(c1ccc(OCC(F)(F)F)nc1)n1cc(-c2cc(C(=O)N[C@H]3CCOC3)n3nc(N)nc3c2)cn1 (mixture of isomers) [Example I-186]
